Non-standard residues stand in square brackets, D forms with d. No end group written: not given here.
Tests used:
[1] = test system: isolated perfused rat hearts; test: Cardiac function of isolated perfused rat hearts (modified Langendorff) subjected to global I(30 min)/R(45 min); conditions: for blocking of the cardio-protective effects of tri-peptide: opioid antagonist 5 μM given with tri-peptide 50 μM
[2] = test system: isolated perfused rat hearts; test: Infarct size by TTC staining of isolated perfused rat hearts after I(30 min)/R(45 min)
[3] = Ventilator induced diaphragmatic dysfunction
[4] = compared to untreated control I/R hearts, tri-peptide 50 μM
[5] = final value, 45 min reperfusion
[6] = initial (baseline) value, mean ± S.E.M.

Row | Compound | blocking of the cardio-protective effects of tri-peptide [1] | post-reperfused cardiac function [1, 4] | Final +dP/dtmax [1, 5] | Final Coronary How [1, 5] | Final Heart Rate [1, 5] | Final LVEDP [1, 5] | Final LVESP [1, 5] | Final −dP/dtmin [1, 5] | Final LVDP ([1]; final value, 45 min reperfusion, LVDP=LVESP−LVEDP) | Initial +dP/dtmax ([1]; initial (baseline) value) | Initial Coronary Flow ([1]; initial (baseline) value) | Initial Heart Rate ([1]; initial (baseline) value) | Initial LVDP ([1]; initial (baseline) value, LVDP=LVESP−LVEDP) | Initial LVEDP [1, 6] | Initial LVESP [1, 6] | infarct size ([2]; TTC staining after I(30 min)/R(45 min)) | infarct size [2, 4] | ventilator induced diaphragmatic dysfunction [3]
1 | Oc1ccc2c3c1O[C@H]1c4[nH]c5c(c4C[C@@]4(O)[C@@H](C2)N(CC2CC2)CC[C@]314)C[C@@]1(O)[C@H]2Cc3ccc(O)c4c3[C@@]1(CCN2CC1CC1)[C@H]5O4 [BNI, nor-Binaltorphimine, reference compound] | blocked | – | – | – | – | – | – | – | – | – | – | – | – | – | – | – | – | –
2 | Oc1ccc2c3c1O[C@H]1c4[nH]c5ccccc5c4C[C@@]4(O)[C@@H](C2)N(CC2CC2)CC[C@]314 [NALD, naltrindole, reference compound] | not | – | – | – | – | – | – | – | – | – | – | – | – | – | – | – | – | –
3 | Phe-[dR]-Phe-NH2 [tri-peptide] | – | significantly restored | 1126.8 ± 177.2 mmHg/s | 9.6 ± 1.5 mL/min | 276.3 ± 12.6 BPM | 50.1 ± 7.4 mmHg | 105.6 ± 6.1 mmHg | 965.5 ± 112.1 mmHg/s | 55.5 ± 6.0 mmHg | 2376.7 ± 75.1 mmHg/s | 17.7 ± 0.9 mL/min | 287.8 ± 8.1 BPM | 94.2 ± 2.7 mmHg | 6.7 ± 0.8 mmHg | 100.9 ± 3.1 mmHg | 26 ± 1% | reduced infarct size | attenuate
